The record followed here is patent publication US10316056B2, “Chemical compounds and use thereof for improving muscular quality” (BIOPHYTIS, priority 2014, dated 2019).

For data set [1], the system named is S6 kinase (S6K1) phosphorylation in C2C12 cells. Briefly: Phosphorylation of the S6 kinase in C2C12 cells (ELISA pS6K T389), protein synthesis. The format is cell-based, mouse. Particulars: Mus musculus, C2C12, 2 h; for activity at 10 µM: read-out: Protein synthesis (percentage increase in S6K phosphorylation in muscle cells); for activity: test compounds and 20E reference (10 μM), read-out: S6K1 phosphorylation level. A general note: In an ELISA, binding on a coated surface is turned into a signal by an enzyme label.

For a further data set, the system named is MyoD transcripts. The data set is described as follows: Mice subjected to a high-fat diet: MyoD transcripts of the Soleus muscle. The class given is in vivo, C57BL/6J mice. Particulars: 5 mg/kg orally; high-fat diet for 6 weeks; FIG. 5A. Here is the method:
The 20E as comparative compound and the compounds according to the invention (Nos. 51 and 93) were administered orally, at a dose of 5 mg/kg of body weight, to 12-week-old C57BL/6J mice subjected to a high-fat diet for 6 weeks. The effect of the compounds on the weight and the amount of proteins of the Soleus muscle and also the transcripts of genes involved in myogenesis were evaluated.
Myogenesis, which is the process for forming muscle tissues, is controlled by several myogenic transcription factors which act as end effectors of the signaling cascade and produce transcripts involved in the various stages of development. The roles of the transcription factors have been described in various journals (Sabourin and Rudnicki 2000 and Le Grand and Rudnicki 2007). The Pax7 protein (Paired-box protein 7) maintains a population of satellite cells in quiescence and, with Myf5 (Myogenic factor 5), plays a role in the expansion of activated myoblasts. The MyoD protein (Myoblast Determination protein) appears to determine the differentiation potential of activated myoblasts, and cooperates with myogenin and the MEF2 (Myocyte Enhancer Factor 2) protein to control and bring about differentiation. Finally, MRF4 (Muscle-specific Regulatory Factor 4) is required for hypertrophy, even though it probably plays other roles. […]
The relative differences in gene expression between treatments are expressed as increase or decrease in the number of cycle times [Ct] compared with the control group, the [Ct] value of each gene having been standardized with the beta-actin gene.
The in vivo study is carried out by evaluating the effect of 20E as comparative compound and of the molecules according to the invention (Nos. 51 and 93) administered orally, at a dose of 5 mg/kg of body weight, to C57BL/6 mice subjected to a high-fat diet for 6 weeks. The effect of the molecules on the weight and the amount of proteins of the Soleus muscle and also the transcripts of genes involved in myogenesis were evaluated.

For data set [2] the following is noted: rat, in vivo, po; for Cexp (coefficient of exposure): male, Wistar.
Experimental: (§1) The pharmacokinetics of the compounds were evaluated orally using male Wistar rats (Charles River). […] The novel compounds according to the invention were administered at a dose of 10 mg/kg of body weight in the form of a mixture of 4 to 6 products. After administration, the blood was sampled from the tail at t=0.25 h, 0.5 h, 1 h, 3 h, 6 h and 8 h. The blood samples were centrifuged and the plasmas removed.
The next data set is described as follows: in vivo. Particulars: male, Wistar, rat, po, 10 mg/kg.

Experimental for in vivo: as §1

Turning to `CCC(CC)C(=O)N(CCOC)C(C)[C@H]1CC[C@@]2(O)C3=CC(=O)[C@@H]4C[C@@H](O)[C@@H](O)C[C@]4(C)C3CC[C@]12C` (stereo partly drawn) [Compound 51, 2-ethyl-N-(2-methoxyethyl)-N-[1-[(2S,3R,5R,10R,13R,14S,17S)-2,3,14-trihydroxy-10,13-dimethyl-6-oxo-2,3,4,5,9,11,12,15,16,17-decahydro-1H-cyclopenta[a]phenanthren-17-yl]ethyl]butanamide], in data set [1], the activity at 10 µM is 110 to 129% and the activity is approximately 120%. In the data set on MyoD transcripts, the “transcripts of the MyoD gene” value is given as “increase”. Also, in data set [2], the “Cexp (coefficient of exposure)” value stood at 3.6 and the “plasma exposure compared with 20E” value is “better plasma exposure”. Further, in the data set “in vivo”, the AUC was 273 ng·h/mL, the concentration peaked (Cmax) at 174 ng/mL and the Tmax came out at 15 min.

Consider `CCSCC(=O)[C@H]1CC[C@@]2(O)C3=CC(=O)[C@@H]4C[C@@H](O)[C@@H](O)C[C@]4(C)C3CC[C@]12C` (stereo partly drawn) [Compound 93, (2S,3R,5R,10R,13R,14S,17S)-17-(2-ethylsulfanylacetyl)-2,3,14-trihydroxy-10,13-dimethyl-2,3,4,5,9,11,12,15,16,17-decahydro-1H-cyclopenta[a]phenanthren-6-one], for which, in data set [1], the activity at 10 µM was more than 130% and the activity lay within 130 to 140%. The “transcripts of the MyoD gene” value in the data set with MyoD transcripts is “increase”. Besides, in data set [2], the “Cexp (coefficient of exposure)” value is 10.3 and the “plasma exposure compared with 20E” value is “better plasma exposure”. Besides, in the data set “in vivo”, the AUC came out at 785 ng·h/mL, the highest concentration (Cmax) stood at 230 ng/mL and the time of peak concentration (Tmax) was found to be 30 min.

The AUC is concentration integrated over time. A higher AUC goes with high exposure. As a reminder, the Cmax is the maximum level reached in the sampled fluid or tissue. One may read the Tmax as the time from dosing to the highest level.
